Each structure is given as a SMILES string. Where two headings read alike, the source gives them in different places.

As usually defined, the IC50 is the concentration that gives 50% inhibition.

What all share (type): cell-based
Experiment [1] concerns H526 cell line. The experiment can be described thus: Cell viability assay for NCI-H526 cell line (EZ-Cytox). Particulars: Homo sapiens, NCI-H526, 120 h; H526 cells, 3-fold dilutions 3000 nM to 0.46 nM, 5 days. Summed up: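 Read-out was EZ-Cytox colorimetric absorbance at 450 nm, taken after brief plate shaking, with IC50 derived. Before reading, H526 cells had been cultured with test compound for 5 days.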

Experiment [2] has as its system MRC-5 cell line. Kind of experiment: Cell viability assay for MRC-5 cell line (EZ-Cytox cytotoxicity experiment). As to conditions: Homo sapiens, MRC5, 120 h, MRC-5 normal cell line, 5 days. The method, then: 4. Cell Viability Assay for MRC-5 Cell Line
(1) Culture of MRC-5 Cell Line
Passage of cultured cells was maintained within P15.
(2) Treatment of Compounds of the Present Invention
Then, it was cultured in 37° C.
(3) Cytotoxicity Experiment
CO2 incubator for 4 hours.

In experiment [3] the target is T1, PLK1 (Homo sapiens, UniProt P53350).
T1 construct: endogenous in cells; host or cells: HeLa LgBit (Plk1-HiBit KI): HeLa stably expressing LgBit, with HiBit knocked in at the endogenous Plk1 locus by CRISPR/Cas9
T1 sequence (P53350 whole entry): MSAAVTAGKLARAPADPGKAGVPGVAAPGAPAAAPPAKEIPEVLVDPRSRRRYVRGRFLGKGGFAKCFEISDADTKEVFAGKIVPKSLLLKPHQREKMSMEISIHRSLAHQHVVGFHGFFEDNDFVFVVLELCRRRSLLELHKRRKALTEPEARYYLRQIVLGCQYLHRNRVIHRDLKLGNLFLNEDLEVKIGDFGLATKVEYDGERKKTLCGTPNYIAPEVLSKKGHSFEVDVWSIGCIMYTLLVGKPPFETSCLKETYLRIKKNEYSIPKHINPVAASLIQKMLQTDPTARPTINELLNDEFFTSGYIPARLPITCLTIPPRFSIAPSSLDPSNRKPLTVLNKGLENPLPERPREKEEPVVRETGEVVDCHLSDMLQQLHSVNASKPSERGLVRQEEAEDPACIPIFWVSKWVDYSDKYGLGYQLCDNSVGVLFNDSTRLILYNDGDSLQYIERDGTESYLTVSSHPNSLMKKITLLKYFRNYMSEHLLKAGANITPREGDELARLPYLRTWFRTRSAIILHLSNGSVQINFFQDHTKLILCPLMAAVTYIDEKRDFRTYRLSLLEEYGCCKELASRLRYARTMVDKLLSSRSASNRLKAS
Kind of experiment: Luciferase assay for PLK1 in HeLa LgBit (Plk1-HiBit KI) cell line. As to conditions: compound 300 nM, luminescence after 9 hours. The procedure, abridged:
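HeLa cells stably expressing LgBit, with HiBit knocked in at the endogenous Plk1 C-terminus, synchronized by 2 mM thymidine block for 24 h, then released and cultured 18 h. Compound added at 300 nM with Endurazine substrate; luminescence tracked in real time and expressed as ratio to DMSO.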
Background: With HiBiT, luminescence reflects the tagged protein that the partner subunit can reach.

[4] abbreviates: 3-fold dilutions 10000 nM to 1.52 nM, Exemplary Compounds, numeric values, read-out: Activity: IC50 value (nM) to MRC-5 cell line.
The mark [5] stands for this setting: highest concentration 10000 nM, N.D. = no cytotoxicity until 10 μM, read-out: Activity: IC50 value to MRC-5 cell line, N.D. cells.

As to `COc1cc(C(=O)NCC2CC3(CCN(CC4CCN(c5c(F)cc(NC6CCC(=O)NC6=O)cc5F)CC4)CC3)C2)ccc1Nc1ncc2c(n1)N(C(C)C)CC(F)(F)C(=O)N2C` (stereo not drawn) [Compound 30, 4-((7,7-difluoro-9-isopropyl-5-methyl-6-oxo-6,7,8,9-tetrahydro-5H-pyrimido[4,5-b][1,4]diazepin-2-yl)amino)-N-((7-((1-(4-((2,6-dioxopiperidin-3-yl)amino)-2,6-difluorophenyl)piperidin-4-yl)methyl)-7-azaspiro[3.5]nonan-2-yl)methyl)-3-methoxybenzamide], the IC50 in experiment [1] was under 30 nM; in experiment [2] (setting [4]), 7870 nM. For the same compound, the “Activity: ratio of the luminescence value of each Exemplary Compound treatment group to DMSO treatment group” value (“Activity: ratio” below) in experiment [3] is “+++ (+++: <0.3)”.

For the compound `COc1cc(C(=O)NC2CCN(C(=O)CCCNc3ccc(C(=O)NC4CCC(=O)NC4=O)cc3)CC2)c(F)cc1Nc1ncc2c(n1)N(C1CCCC1)CC(F)(F)C(=O)N2C` (stereo not drawn) [Compound 1, 4-((9-cyclopentyl-7,7-difluoro-5-methyl-6-oxo-6,7,8,9-tetrahydro-5H-pyrimido[4,5-b][1,4]diazepin-2-yl)amino)-N-(1-(4-((4-((2,6-dioxopiperidin-3-yl)carbamoyl)phenyl)amino)butanoyl)piperidin-4-yl)-2-fluoro-5-methoxybenzamide], the concentration for half-maximal inhibition (IC50) in experiment [1] is under 50 nM; in experiment [2] (setting [5]) it was over 10000 nM. Moreover, the “Activity: ratio” value in experiment [3] is “++ (++<0.6)”.

For `COc1cc(C(=O)NC2CCN(CCC3CCN(c4cccc5c4n(C)c(=O)n5C4CCC(=O)NC4=O)CC3)CC2)ccc1Nc1ncc2c(n1)N(C1CCCC1)CC(F)(F)C(=O)N2C` (stereo not drawn) [Compound 37, 4-((9-cyclopentyl-7,7-difluoro-5-methyl-6-oxo-6,7,8,9-tetrahydro-5H-pyrimido[4,5-b][1,4]diazepin-2-yl)amino)-N-(1-(2-(1-(1-(2,6-dioxopiperidin-3-yl)-3-methyl-2-oxo-2,3-dihydro-1H-benzo[d]imidazol-4-yl)piperidin-4-yl)ethyl)piperidin-4-yl)-3-methoxybenzamide], the IC50 is under 50 nM in experiment [1] and over 10000 nM in experiment [2] (setting [5]). Also, the “Activity: ratio” value in experiment [3] is listed as “++ (++<0.6)”.

Turning to `COc1cc(C(=O)NC2CC3(CCN(CC4CCN(c5ccc(NC6CCC(=O)NC6=O)cc5)CC4)CC3)C2)ccc1Nc1ncc2c(n1)N(C(C)C)CC(F)(F)C(=O)N2C` (stereo not drawn) [Compound 28, 4-((7,7-difluoro-9-isopropyl-5-methyl-6-oxo-6,7,8,9-tetrahydro-5H-pyrimido[4,5-b][1,4]diazepin-2-yl)amino)-N-(7-((1-(4-((2,6-dioxopiperidin-3-yl)amino)phenyl)piperidin-4-yl)methyl)-7-azaspiro[3.5]nonan-2-yl)-3-methoxybenzamide], the IC50 in experiment [1] is under 30 nM; in experiment [2] (setting [4]) it was 10200 nM. The “Activity: ratio” value in experiment [3] is on record as “++ (++<0.6)”.

In the case of `COc1cc(C(=O)NN2CCC(N3CC4(CCN(c5ccc(N(C)C6CCC(=O)NC6=O)cc5F)CC4)C3)CC2)ccc1Nc1ncc2c(n1)N(C(C)C)CC(F)(F)C(=O)N2C` (stereo not drawn) [Compound 33, 4-((7,7-difluoro-9-isopropyl-5-methyl-6-oxo-6,7,8,9-tetrahydro-5H-pyrimido[4,5-b][1,4]diazepin-2-yl)amino)-N-(4-(7-(4-((2,6-dioxopiperidin-3-yl)(methyl)amino)-2-fluorophenyl)-2,7-diazaspiro[3.5]nonan-2-yl)piperidin-1-yl)-3-methoxybenzamide], the concentration for half-maximal inhibition (IC50) was under 50 nM in experiment [1] and 25000 nM in experiment [2] (setting [4]). The “Activity: ratio” value in experiment [3] was “++ (++<0.6)”.

Consider `COc1cc(C(=O)NN2CCC(CCN3CCN(c4ccc(NC5CCC(=O)NC5=O)cc4F)CC3)CC2)ccc1Nc1ncc2c(n1)N(C1CCCC1)CC(F)(F)C(=O)N2C` (stereo not drawn) [Compound 22, 4-((9-cyclopentyl-7,7-difluoro-5-methyl-6-oxo-6,7,8,9-tetrahydro-5H-pyrimido[4,5-b][1,4]diazepin-2-yl)amino)-N-(4-(2-(4-(4-((2,6-dioxopiperidin-3-yl)amino)-2-fluorophenyl)piperazin-1-yl)ethyl)piperidin-1-yl)-3-methoxybenzamide], for which the values for the half-maximal inhibitory concentration (IC50) in experiment [1] and in experiment [2] (setting [5]) were under 30 nM and over 10000 nM, respectively. Also, the “Activity: ratio” value in experiment [3] is “+++ (+++: <0.3)”.

Regarding `COc1cc(C(=O)NC2CC3(CCN(CC4CCN(c5cccc6c5n(C)c(=O)n6C5CCC(=O)NC5=O)CC4)CC3)C2)ccc1Nc1ncc2c(n1)N(C(C)C)CC(F)(F)C(=O)N2C` (stereo not drawn) [Compound 38, 4-((7,7-difluoro-9-isopropyl-5-methyl-6-oxo-6,7,8,9-tetrahydro-5H-pyrimido[4,5-b][1,4]diazepin-2-yl)amino)-N-(7-((1-(1-(2,6-dioxopiperidin-3-yl)-3-methyl-2-oxo-2,3-dihydro-1H-benzo[d]imidazol-4-yl)piperidin-4-yl)methyl)-7-azaspiro[3.5]nonan-2-yl)-3-methoxybenzamide], the IC50 is under 30 nM in experiment [1] and 3960 nM in experiment [2] (setting [4]). Also, the “Activity: ratio” value in experiment [3] is recorded as “++ (++<0.6)”.

For the compound `COc1cc(C(=O)NC2CC3(CCN(CC4CCN(c5ccc(OC6CCC(=O)NC6=O)cc5F)CC4)CC3)C2)ccc1Nc1ncc2c(n1)N(C(C)C)CC(F)(F)C(=O)N2C` (stereo not drawn) [Compound 35, 4-((7,7-difluoro-9-isopropyl-5-methyl-6-oxo-6,7,8,9-tetrahydro-5H-pyrimido[4,5-b][1,4]diazepin-2-yl)amino)-N-(7-((1-(4-((2,6-dioxopiperidin-3-yl)oxy)-2-fluorophenyl)piperidin-4-yl)methyl)-7-azaspiro[3.5]nonan-2-yl)-3-methoxybenzamide], the IC50 in experiment [1] was under 50 nM; in experiment [2] (setting [4]) it was 16900 nM. For the same compound, the “Activity: ratio” value in experiment [3] is on record as “+++ (+++: <0.3)”.

In the case of `COc1cc(C(=O)NN2CCC(CN3CCN(c4ccc(NC5CCC(=O)NC5=O)cc4F)CC3)CC2)ccc1Nc1ncc2c(n1)N(C(C)C)CC(F)(F)C(=O)N2C` (stereo not drawn) [Compound 17, 4-((7,7-difluoro-9-isopropyl-5-methyl-6-oxo-6,7,8,9-tetrahydro-5H-pyrimido[4,5-b][1,4]diazepin-2-yl)amino)-N-(4-((4-(4-((2,6-dioxopiperidin-3-yl)amino)-2-fluorophenyl)piperazin-1-yl)methyl)piperidin-1-yl)-3-methoxybenzamide], the results for the half-maximal inhibitory concentration (IC50) in experiment [1] and in experiment [2] (setting [5]) were under 50 nM and over 10000 nM, respectively. Further, the “Activity: ratio” value in experiment [3] is recorded as “++ (++<0.6)”.

(Values after patent US20250101025A1, “NOVEL PLK1 DEGRADATION INDUCING COMPOUND” (UPPTHERA, INC., priority 2021, published 2025).)
